Target: T1, PDE4B2 (Homo sapiens, UniProt Q07343)
T1 construct: made in house; host or cells: SF21 insect cells (baculovirus; virus prepared in SF9 cells)
Assay: Inhibition of PDE4 activity: PDE4B2 [3H]cAMP SPA enzyme assay
Assay type: biochemical
Settings: recombinant PDE4B2 (SF21 cell supernatant), modified SPA test, 0.5 μM cAMP, 15 min at 37° C.; read-out: Inhibition of the PDE4 activity, −log IC50 (converted)
Method: The PDE4B2 (GB no. M97515) was a gift of Prof. M. Conti (Stanford University, USA). It was amplified from the original plasmid (pCMV5) via PCR with primers Rb9 (5′-[…]-3′) and Rb10 (5′-[…]-3′) and cloned into the pCR-Bac vector (Invitrogen, Groningen, NL).
The recombinant baculovirus was prepared by means of homologous recombination in SF9 insect cells.
The expression plasmid was cotransfected with Bac-N-Blue (Invitrogen, Groningen, NL) or Baculo-Gold DNA (Pharmingen, Hamburg) using a standard protocol (Pharmingen, Hamburg). Wt virus-free recombinant virus supernatant was selected using plaque assay methods. After that, high-titre virus supernatant was prepared by amplifying 3 times. PDE was expressed in SF21 cells by infecting 2×10^6 cells/ml with an MOI (multiplicity of infection) between 1 and 10 in serum-free SF900 medium (Life Technologies, Paisley, UK). The cells were cultured at 28° C. for 48-72 hours, after which they were pelleted for 5-10 min at 1000 g and 4° C.
The SF21 insect cells were resuspended, at a concentration of approx. 10^7 cells/ml, in ice-cold (4° C.) homogenization buffer (20 mM Tris, pH 8.2, containing the following additions: 140 mM NaCl, 3.8 mM KCl, 1 mM EGTA, 1 mM MgCl2, 10 mM β-mercaptoethanol, 2 mM benzamidine, 0.4 mM Pefablock, 10 μM leupeptin, 10 μM pepstatin A, 5 μM trypsin inhibitor) and disrupted by ultrasonication. The homogenate was then centrifuged for 10 min at 1000×g and the supernatant was stored at −80° C. until subsequent use (see below). The protein content was determined by the Bradford method (BioRad, Munich) using BSA as the standard.
PDE4B2 activity is inhibited by the said compounds in a modified SPA (scintillation proximity assay) test, supplied by Amersham Biosciences (see procedural instructions “phosphodiesterase [3H]cAMP SPA enzyme assay, code TRKQ 7090”), carried out in 96-well microtitre plates (MTP's). The test volume is 100 μl and contains 20 mM Tris buffer (pH 7.4), 0.1 mg of BSA (bovine serum albumin)/ml, 5 mM Mg^2+, 0.5 μM cAMP (including about 50,000 cpm of [3H]cAMP), 1 μl of the respective substance dilution in DMSO and sufficient recombinant PDE (1000×g supernatant, see above) to ensure that 10-20% of the cAMP is converted under the said experimental conditions. […] After a preincubation of 5 min at 37° C., the reaction is started by adding the substrate (cAMP) and the assay is incubated for a further 15 min; after that, it is stopped by adding SPA beads (50 μl). In accordance with the manufacturer's instructions, the SPA beads had previously been resuspended in water, but were then diluted 1:3 (v/v) in water; the diluted solution also contains 3 mM IBMX to ensure a complete PDE activity stop. After the beads have been sedimented (>30 min), the MTP's are analyzed in commercially available […]. The corresponding IC50 values of the compounds for the inhibition of PDE activity are determined from the concentration-effect curves by means of non-linear regression.

T1 sequence (Q07343 1-564 isoform Q07343-2): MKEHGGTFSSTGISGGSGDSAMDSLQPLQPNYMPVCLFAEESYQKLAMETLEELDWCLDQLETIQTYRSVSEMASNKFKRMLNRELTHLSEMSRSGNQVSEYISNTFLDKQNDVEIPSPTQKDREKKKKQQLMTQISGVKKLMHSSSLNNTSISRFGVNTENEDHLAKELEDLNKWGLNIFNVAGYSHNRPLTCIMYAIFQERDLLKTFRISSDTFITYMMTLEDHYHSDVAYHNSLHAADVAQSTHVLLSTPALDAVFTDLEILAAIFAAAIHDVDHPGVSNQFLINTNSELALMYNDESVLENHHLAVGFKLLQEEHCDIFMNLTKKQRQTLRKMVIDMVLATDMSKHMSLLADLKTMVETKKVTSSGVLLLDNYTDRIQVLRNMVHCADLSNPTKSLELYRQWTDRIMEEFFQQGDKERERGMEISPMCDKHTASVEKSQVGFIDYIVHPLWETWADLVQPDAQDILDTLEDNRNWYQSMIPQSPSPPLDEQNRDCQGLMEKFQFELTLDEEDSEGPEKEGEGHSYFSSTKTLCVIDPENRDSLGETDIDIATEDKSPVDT

IC50 [nM] | Structure (SMILES)
0.955 to 8.71 | COc1cc2c(cc1OC)[C@H]1C[C@H](O)CC[C@H]1N=C2c1ccc(C(=O)N2CCN(CC(=O)Nc3cccnc3)CC2)cc1 (racemic) [Compound 13, 2-(4-{1-[4-((2RS,4aRS,10bRS)-2-Hydroxy-8,9-dimethoxy-1,2,3,4,4a,10b-hexahydro-phenanthridin-6-yl)phenyl]methanoyl}-piperazin-1-yl)-N-pyridin-3-yl-acetamide]
0.955 to 8.71 | COc1cc2c(cc1OC)[C@H]1C[C@H](O)CC[C@H]1N=C2c1ccc(C(=O)N(C)C)cc1 (racemic) [Compound 14, 4-((2RS,4aRS,10bRS)-2-Hydroxy-8,9-dimethoxy-1,2,3,4,4a,10b-hexahydro-phenanthridin-6-yl)-N,N-dimethyl-benzamide]
0.955 to 8.71 | CCN(CCOC)C(=O)c1ccc(C2=NC3CCC(O)CC3c3cc(OC)c(OC)cc32)cc1 (stereo not drawn) [Compound 10]
0.955 to 8.71 | COc1cc2c(cc1OC(F)F)[C@H]1C[C@H](O)CC[C@H]1N=C2c1ccc(C(=O)N2CCN(CC(=O)Nc3ccccn3)CC2)cc1 (racemic) [Compound 31, 2-[4(1-{4-[(2RS,4aRS,10bRS)-9-(1,1-Difluoro-methoxy)-2-hydroxy-8-methoxy-1,2,3,4,4a,10b-hexahydro-phenanthridin-6-yl]-phenyl}-methanoyl)-piperazin-1-yl]-N-pyridin-2-yl-acetamide]
0.955 to 8.71 | COc1cc2c(cc1OC)[C@H]1C[C@H](O)CC[C@H]1N=C2c1ccc(C(=O)N2CCN(CC(=O)Nc3ccccn3)CC2)cc1 (racemic) [Compound 15, 2-(4-{1-[4-((2RS,4aRS,10bRS)-2-Hydroxy-8,9-dimethoxy-1,2,3,4,4a,10b-hexahydro-phenanthridin-6-yl)-phenyl]-methanoyl}-piperazin-1-yl)-N-pyridin-2-yl-acetamide]
0.955 to 8.71 | COc1cc2c(cc1OC(F)F)C1CC(O)CCC1N=C2c1ccc(C(=O)N2CCN(CC(=O)N(C)C)CC2)cc1 (stereo not drawn) [Compound 34, 2-[4-(1-{4-[(2RS,4aRS,10bRS)-9-(1,1-Difluoro-methoxy)-2-hydroxy-8-methoxy-1,2,3,4,4a,10bhexahydro-phenanthridin-6-yl]-phenyl}-methanoyl)-piperazin-1-yl]-N,N-dimethyl-acetamide]
0.955 to 8.71 | COc1cc2c(cc1OC)[C@H]1C[C@H](O)CC[C@H]1N=C2c1ccc(C(=O)N2CCOCC2)cc1 (racemic) [Compound 19, 1-[4-((2RS,4aRS,10bRS)-2-Hydroxy-8,9-dimethoxy-1,2,3,4,4a,10b-hexahydro-phenanthridin-6-yl)-phenyl]-1-morpholin-4-yl-methanone]
0.955 to 8.71 | COc1cc2c(cc1OC)C1CC(O)CCC1N=C2c1ccc(C(=O)N2CCN(c3ccncc3)CC2)cc1 (stereo not drawn) [Compound 18]
0.955 to 8.71 | COc1cc2c(cc1OC(F)F)[C@H]1C[C@H](O)CC[C@H]1N=C2c1ccc(C(=O)N(C)C)cc1 (racemic) [Compound 24, 4-[(2RS,4aRS,10bRS)-9-(1,1-Difluoro-methoxy)-2-hydroxy-8-methoxy-1,2,3,4,4a,10b-hexahydro-phenanthridin-6-yl]-N,N-dimethyl-benzamide]
0.955 to 8.71 | COc1cc2c(cc1OC(F)F)[C@H]1C[C@H](O)CC[C@H]1N=C2c1ccc(C(=O)N2CCN(CCN(C)C)CC2)cc1 (racemic) [Compound 35, 1-{4-[(2RS,4aRS,10bRS)-9-(1,1-Difluoro-methoxy)-2-hydroxy-8-methoxy-1,2,3,4,4a,10b-hexahydro-phenanthridin-6-yl]-phenyl}-1-[4-(2-dimethylamino-ethyl)-piperazin-1-yl]-methanone]
0.955 to 8.71 | COc1cc2c(cc1OC)C1CC(O)CCC1N=C2c1ccc(C(=O)N2CCN(CC(=O)N(C)C)CC2)cc1 [Compound 16, 2-(4-{1-[4-((2R,4aR,10bR)-2-Hydroxy-8,9-dimethoxy-1,2,3,4,4a,10b-hexahydro-phenanthridin-6-yiyphenyl]-methanoyl}-piperazin-1-yl)-N,N-dimethyl-acetamide]
0.955 to 8.71 | COc1cc2c(cc1OC)C1CC(O)CCC1N=C2c1ccc(C(=O)NCCCN2CCOCC2)cc1 (stereo not drawn) [Compound 2]

From US20070185149A1, “Novel amido-substituted hydroxy-6-phenylphenanthridines and their use as pde4 inhibtors” (ALTANA PHARMA AG, priority 2004, published 2007)
